Legend:
[1] = target: Mitogen-activated protein kinase 1 (Homo sapiens) (UniProt P28482); assay: Inhibition of human full length ERK2 expressed in Escherichia coli cell assessed as substrate phosphorylation using fluorescence-labelled peptides as substrate at 0.06 uM after 90 mins by microfluidic peptide phosphorylation assay
[2] = target: T1, Serine/threonine-protein kinase Sgk3 (Homo sapiens) (UniProt Q96BR1); assay: Inhibition of human full length SGK3 expressed in baculovirus assessed as substrate phosphorylation using fluorescence-labelled peptides as substrate at 70 uM after 90 mins by microfluidic peptide phosphorylation assay
T1 sequence (whole entry): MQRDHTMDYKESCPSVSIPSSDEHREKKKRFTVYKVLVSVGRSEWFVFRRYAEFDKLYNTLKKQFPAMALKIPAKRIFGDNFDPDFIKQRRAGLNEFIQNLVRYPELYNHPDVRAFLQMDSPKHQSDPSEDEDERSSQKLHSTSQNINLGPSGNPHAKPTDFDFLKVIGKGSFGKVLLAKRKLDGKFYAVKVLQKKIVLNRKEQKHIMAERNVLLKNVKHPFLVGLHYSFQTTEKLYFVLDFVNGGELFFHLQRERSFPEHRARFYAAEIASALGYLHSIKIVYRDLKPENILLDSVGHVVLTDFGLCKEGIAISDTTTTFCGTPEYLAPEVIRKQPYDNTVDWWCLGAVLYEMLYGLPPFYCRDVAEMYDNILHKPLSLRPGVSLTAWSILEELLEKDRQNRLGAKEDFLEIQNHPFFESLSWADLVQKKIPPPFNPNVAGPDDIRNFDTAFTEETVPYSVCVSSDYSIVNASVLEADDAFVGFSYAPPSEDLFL

[3] = target: Protein kinase C alpha type (Homo sapiens) (UniProt P17252); assay: Inhibition of human truncated PKC alpha expressed in baculovirus assessed as substrate phosphorylation using fluorescence-labelled peptides as substrate at 0.2 uM after 90 mins by microfluidic peptide phosphorylation assay
[4] = target: Ribosomal protein S6 kinase alpha-3 (Homo sapiens) (UniProt P51812); assay: Inhibition of human full length RSK2 expressed in baculovirus assessed as substrate phosphorylation using fluorescence-labelled peptides as substrate at 420 uM after 90 mins by microfluidic peptide phosphorylation assay
[5] = test system: Tyrosine-protein kinase ABL1 (Homo sapiens), P00519 [H396P]; assay: Inhibition of human truncated ABL H396P mutant expressed in baculovirus assessed as substrate phosphorylation using fluorescence-labelled peptides as substrate at 420 uM after 90 mins by microfluidic peptide phosphorylation assay
[6] = target: T2, Serine/threonine-protein kinase D3 (Homo sapiens) (UniProt O94806); assay: Inhibition of human full length PKD3 expressed in baculovirus assessed as substrate phosphorylation using fluorescence-labelled peptides as substrate at 95 uM after 90 mins by microfluidic peptide phosphorylation assay
T2 sequence (whole entry): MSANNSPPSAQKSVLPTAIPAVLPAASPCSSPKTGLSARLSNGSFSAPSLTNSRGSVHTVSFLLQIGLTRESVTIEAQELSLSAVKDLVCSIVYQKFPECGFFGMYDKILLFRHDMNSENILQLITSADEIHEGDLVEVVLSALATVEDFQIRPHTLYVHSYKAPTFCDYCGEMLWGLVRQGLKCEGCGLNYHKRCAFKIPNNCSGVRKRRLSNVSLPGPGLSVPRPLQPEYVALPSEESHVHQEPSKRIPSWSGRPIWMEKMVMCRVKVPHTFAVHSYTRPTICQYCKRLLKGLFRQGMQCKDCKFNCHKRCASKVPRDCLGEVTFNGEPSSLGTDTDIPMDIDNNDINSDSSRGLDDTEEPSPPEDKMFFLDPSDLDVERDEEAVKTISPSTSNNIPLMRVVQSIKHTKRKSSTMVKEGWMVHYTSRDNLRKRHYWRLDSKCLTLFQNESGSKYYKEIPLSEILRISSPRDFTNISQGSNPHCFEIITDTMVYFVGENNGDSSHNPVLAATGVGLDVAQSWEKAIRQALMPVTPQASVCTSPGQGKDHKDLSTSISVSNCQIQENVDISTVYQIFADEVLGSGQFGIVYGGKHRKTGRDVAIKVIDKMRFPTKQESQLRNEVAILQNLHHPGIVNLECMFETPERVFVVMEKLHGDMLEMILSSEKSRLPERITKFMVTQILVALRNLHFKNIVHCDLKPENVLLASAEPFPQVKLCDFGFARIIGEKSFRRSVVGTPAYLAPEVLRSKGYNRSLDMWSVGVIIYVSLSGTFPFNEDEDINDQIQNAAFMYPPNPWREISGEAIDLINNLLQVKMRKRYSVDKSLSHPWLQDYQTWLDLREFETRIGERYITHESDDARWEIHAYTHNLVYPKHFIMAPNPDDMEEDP

[7] = target: Tyrosine-protein kinase Lck (Homo sapiens) (UniProt P06239); assay: Inhibition of human full length LCK expressed in baculovirus assessed as substrate phosphorylation using fluorescence-labelled peptides as substrate at 2 uM after 90 mins by microfluidic peptide phosphorylation assay
[8] = target: T3, MAP kinase-activated protein kinase 5 (Homo sapiens) (UniProt Q8IW41); assay: Inhibition of human full length PRAK expressed in baculovirus assessed as substrate phosphorylation using fluorescence-labelled peptides as substrate at 2 uM after 90 mins by microfluidic peptide phosphorylation assay
T3 sequence (whole entry): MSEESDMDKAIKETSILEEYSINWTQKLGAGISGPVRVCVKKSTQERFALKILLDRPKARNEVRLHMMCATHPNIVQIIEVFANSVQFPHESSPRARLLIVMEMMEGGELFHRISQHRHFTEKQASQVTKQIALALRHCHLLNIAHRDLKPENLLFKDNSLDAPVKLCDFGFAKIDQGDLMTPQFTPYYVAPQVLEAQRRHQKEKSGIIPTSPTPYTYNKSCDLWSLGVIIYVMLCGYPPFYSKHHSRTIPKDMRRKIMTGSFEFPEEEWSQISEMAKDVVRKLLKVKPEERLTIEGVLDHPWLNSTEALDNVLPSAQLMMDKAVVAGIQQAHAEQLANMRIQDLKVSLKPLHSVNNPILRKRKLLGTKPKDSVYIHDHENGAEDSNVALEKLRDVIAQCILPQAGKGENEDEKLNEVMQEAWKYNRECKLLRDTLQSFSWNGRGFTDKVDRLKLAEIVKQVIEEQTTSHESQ

[9] = target: Calcium/calmodulin-dependent protein kinase type II subunit gamma (Homo sapiens) (UniProt Q13555); assay: Inhibition of human CAMK2 gamma catalytic domain expressed in baculovirus assessed as substrate phosphorylation using fluorescence-labelled peptides as substrate at 2 uM after 90 mins by microfluidic peptide phosphorylation assay
[10] = target: Tyrosine-protein kinase Lck (Homo sapiens) (UniProt P06239); assay: Inhibition of human full length LCK expressed in baculovirus assessed as substrate phosphorylation using fluorescence-labelled peptides as substrate at 8 uM after 90 mins by microfluidic peptide phosphorylation assay
[11] = target: Insulin-like growth factor 1 receptor (Homo sapiens) (UniProt P08069); assay: Inhibition of human IGF1R catalytic domain expressed in baculovirus assessed as substrate phosphorylation using fluorescence-labelled peptides as substrate at 0.1 uM after 90 mins by microfluidic peptide phosphorylation assay

Sequence of Tyrosine-protein kinase Lck (Homo sapiens) (P06239 2-509 limits assumed): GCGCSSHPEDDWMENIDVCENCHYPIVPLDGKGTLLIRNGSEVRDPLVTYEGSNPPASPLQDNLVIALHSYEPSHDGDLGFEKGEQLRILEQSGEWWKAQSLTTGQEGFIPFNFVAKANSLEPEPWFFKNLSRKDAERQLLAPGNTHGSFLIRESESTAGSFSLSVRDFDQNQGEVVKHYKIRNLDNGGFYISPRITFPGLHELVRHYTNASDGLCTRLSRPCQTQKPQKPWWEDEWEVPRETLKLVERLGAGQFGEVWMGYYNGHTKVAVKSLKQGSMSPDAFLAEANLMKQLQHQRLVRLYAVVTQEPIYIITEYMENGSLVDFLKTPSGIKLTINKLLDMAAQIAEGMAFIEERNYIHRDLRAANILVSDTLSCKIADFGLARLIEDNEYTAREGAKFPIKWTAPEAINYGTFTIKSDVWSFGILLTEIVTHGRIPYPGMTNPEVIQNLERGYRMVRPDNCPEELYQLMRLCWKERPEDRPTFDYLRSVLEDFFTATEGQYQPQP
Sequence of Ribosomal protein S6 kinase alpha-3 (Homo sapiens) (P51812 whole entry, the tested form may be a part): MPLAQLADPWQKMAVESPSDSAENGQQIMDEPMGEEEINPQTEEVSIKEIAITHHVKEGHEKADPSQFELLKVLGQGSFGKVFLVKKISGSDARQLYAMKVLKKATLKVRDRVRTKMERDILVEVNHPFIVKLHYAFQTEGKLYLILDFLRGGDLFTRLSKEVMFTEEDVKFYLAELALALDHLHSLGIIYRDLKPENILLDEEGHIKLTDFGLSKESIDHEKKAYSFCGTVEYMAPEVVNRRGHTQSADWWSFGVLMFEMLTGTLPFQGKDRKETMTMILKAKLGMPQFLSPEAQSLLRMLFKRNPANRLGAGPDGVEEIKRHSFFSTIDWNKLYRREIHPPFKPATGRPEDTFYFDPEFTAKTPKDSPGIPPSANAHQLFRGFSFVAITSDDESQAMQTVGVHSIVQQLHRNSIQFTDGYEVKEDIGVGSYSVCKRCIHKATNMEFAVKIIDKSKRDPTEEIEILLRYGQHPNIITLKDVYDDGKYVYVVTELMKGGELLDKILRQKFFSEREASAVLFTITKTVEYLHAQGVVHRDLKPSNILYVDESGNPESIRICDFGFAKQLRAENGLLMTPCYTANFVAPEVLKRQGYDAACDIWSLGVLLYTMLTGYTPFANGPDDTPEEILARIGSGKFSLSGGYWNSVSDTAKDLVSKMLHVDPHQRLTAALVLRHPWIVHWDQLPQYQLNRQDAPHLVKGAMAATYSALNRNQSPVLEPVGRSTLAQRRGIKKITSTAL
Sequence of Mitogen-activated protein kinase 1 (Homo sapiens) (P28482 whole entry): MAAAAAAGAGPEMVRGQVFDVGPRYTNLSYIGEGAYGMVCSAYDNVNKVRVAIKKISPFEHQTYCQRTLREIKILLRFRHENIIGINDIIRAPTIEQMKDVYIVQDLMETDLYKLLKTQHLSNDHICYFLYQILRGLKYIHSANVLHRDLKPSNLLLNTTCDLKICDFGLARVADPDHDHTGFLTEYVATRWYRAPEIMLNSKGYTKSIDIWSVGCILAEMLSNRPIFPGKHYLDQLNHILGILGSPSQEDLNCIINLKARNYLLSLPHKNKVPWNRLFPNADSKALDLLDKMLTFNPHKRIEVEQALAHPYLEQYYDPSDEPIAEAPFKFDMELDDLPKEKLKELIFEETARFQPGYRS
Sequence of Calcium/calmodulin-dependent protein kinase type II subunit gamma (Homo sapiens) (Q13555 whole entry, the tested form may be a part): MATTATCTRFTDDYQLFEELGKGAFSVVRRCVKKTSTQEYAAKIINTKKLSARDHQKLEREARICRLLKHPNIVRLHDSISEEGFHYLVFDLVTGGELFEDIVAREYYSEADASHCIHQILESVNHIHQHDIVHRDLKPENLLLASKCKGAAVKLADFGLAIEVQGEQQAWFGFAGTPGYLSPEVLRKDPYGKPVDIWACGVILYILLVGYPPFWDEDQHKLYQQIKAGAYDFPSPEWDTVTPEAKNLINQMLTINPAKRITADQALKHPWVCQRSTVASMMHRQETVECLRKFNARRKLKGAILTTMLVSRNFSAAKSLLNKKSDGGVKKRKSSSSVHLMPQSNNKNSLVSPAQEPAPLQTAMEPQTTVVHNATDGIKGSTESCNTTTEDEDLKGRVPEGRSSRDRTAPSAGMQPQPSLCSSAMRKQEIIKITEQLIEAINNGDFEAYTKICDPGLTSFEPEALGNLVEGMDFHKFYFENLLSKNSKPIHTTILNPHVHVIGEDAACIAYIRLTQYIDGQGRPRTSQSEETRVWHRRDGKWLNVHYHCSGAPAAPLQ

Structure (SMILES): NC1(Cc2ccc(Cl)cc2)CCN(c2ncnc3[nH]ccc23)CC1
- inhibition [1]: 4.5%

Structure (SMILES): CNCc1ccc(-c2ncnc3[nH]cnc23)cc1
- inhibition [2]: 58%

Structure (SMILES): Clc1ccc(C2(c3ccc(-c4ncnc5[nH]cnc45)cc3)CCNCC2)cc1
- inhibition [3]: 77.5%

Structure (SMILES): c1nc(N2CCOCC2)c2nc[nH]c2n1
- inhibition [4]: 95%
- inhibition [5]: 71%

Structure (SMILES): NCCc1ccc(-c2ncnc3[nH]cnc23)cc1
- inhibition [6]: 61.5%

Structure (SMILES): NC1CCN(c2ncnc3[nH]ccc23)CC1
- inhibition [7]: 4.5%
- inhibition [8]: 7%
- inhibition [9]: 0%

Structure (SMILES): NCC1CCN(c2ncnc3[nH]ccc23)CC1
- inhibition [10]: 48.5%

Structure (SMILES): C[C@H](CN(C)C)Oc1nc(Nc2cc3cccc(Cl)c3cn2)cnc1C#N
- inhibition [11]: 9.5%

— ChEMBL document CHEMBL3132769, “Fragment growing to retain or alter the selectivity of anchored kinase hinge-binding fragments” (Medchemcomm, 2014)
